In ChEMBL document CHEMBL5209563, “FFN206 based assay for SLC18A1 using HEK-293 SLC18A1 OE cells” (2022):
Active and inactive are the calls of the source. The rule behind the calls is not given here.

Biological target: T1, Chromaffin granule amine transporter (Homo sapiens, UniProt P54219)
T1 sequence (P54219 whole entry): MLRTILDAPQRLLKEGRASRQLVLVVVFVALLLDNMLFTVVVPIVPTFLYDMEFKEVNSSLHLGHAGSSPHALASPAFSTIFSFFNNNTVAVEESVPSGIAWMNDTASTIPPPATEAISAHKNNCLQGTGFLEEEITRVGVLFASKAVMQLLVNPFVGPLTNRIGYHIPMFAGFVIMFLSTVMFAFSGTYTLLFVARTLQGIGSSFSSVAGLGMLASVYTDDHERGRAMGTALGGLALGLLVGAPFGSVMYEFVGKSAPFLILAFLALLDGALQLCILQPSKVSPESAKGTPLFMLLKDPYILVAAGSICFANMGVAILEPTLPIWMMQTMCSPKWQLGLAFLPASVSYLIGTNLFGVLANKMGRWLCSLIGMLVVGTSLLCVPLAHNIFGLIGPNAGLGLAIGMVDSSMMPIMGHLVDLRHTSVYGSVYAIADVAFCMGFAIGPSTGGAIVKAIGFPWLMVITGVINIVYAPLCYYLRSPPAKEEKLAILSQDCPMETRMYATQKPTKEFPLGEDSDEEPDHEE
Test: Substrate uptake and inhibition of the chromaffin granule amine transporter (VAT1, VMAT1, SLC18A1) as assessed by uptake of a fluorescent substrate (FFN206) in HEK-293 JumpIN-SLC18A1 cells (PubChem AID: 1794818)
Assay type: functional, cell-based, HEK293

COc1cc2c(cc1OC)C1CC(=O)C(CC(C)C)CN1CC2 (stereo not drawn) [TETRABENAZINE]
IC50: > 10 µM (inactive)

COC(=O)[C@H]1[C@H]2C[C@@H]3c4[nH]c5cc(OC)ccc5c4CCN3C[C@H]2C[C@@H](OC(=O)c2cc(OC)c(OC)c(OC)c2)[C@@H]1OC [RESERPINE]
IC50: 0.05 µM

CNc1ccc2c(CCN)cc(=O)oc2c1
EC50: 2 µM
